Assay results published in patent US12252497B2, “Ras inhibitors” (Revolution Medicines, Inc., priority 2021, dated 2025).
Read-outs that look alike come from different tables or passages of the source.

Conditions: ester bond, 18-membered ring

## CO[C@@H](C)c1ncc(N2CCN3CCCC[C@@H]3C2)cc1-c1c2c3cc(ccc3n1CC(F)(F)F)-c1cccc(c1)C[C@H](NC(=O)OC(C)(C)C)C(=O)N1CCC[C@H](N1)C(=O)OCC(C)(C)C2
From CO[C@@H](C)c1ncc(N2CCN3CCCC[C@@H]3C2)cc1-c1c(CC(C)(C)CO)c2cc(-c3cccc(C[C@H](NC(=O)OC(C)(C)C)C(=O)N4CCC[C@@H](C(=O)O)N4)c3)ccc2n1CC(F)(F)F, EDCI.HCl/HOBt/DIPEA, DCM, 12.9 mM, 0.0 °C
  ring closure, isolated yield: 65%

## CCn1c(-c2cc(N3CCN4CCC[C@@H]4C3)cnc2[C@H](C)OC)c2c3cc(ccc31)-c1csc(n1)C[C@H](NC(=O)OC(C)(C)C)C(=O)N1CCC[C@H](N1)C(=O)OCC(C)(C)C2
From CCn1c(-c2cc(N3CCN4CCC[C@@H]4C3)cnc2[C@H](C)OC)c(CC(C)(C)CO)c2cc(-c3csc(C[C@H](NC(=O)OC(C)(C)C)C(=O)N4CCC[C@@H](C(=O)O)N4)n3)ccc21, EDCI/HOBt/DIEA, DCM, 111.6 mM, 25.0 °C, 16.0 h
  ring closure, isolated yield: 37%

## CCn1c(-c2cc(N3CCN4CCOC[C@@H]4C3)cnc2[C@H](C)OC)c2c3cc(ccc31)N1CCO[C@@H](C[C@H](NC(=O)OC(C)(C)C)C(=O)N3CCC[C@H](N3)C(=O)OCC(C)(C)C2)C1
From CCn1c(-c2cc(N3CCN4CCOC[C@@H]4C3)cnc2[C@H](C)OC)c(CC(C)(C)CO)c2cc(N3CCO[C@@H](C[C@H](NC(=O)OC(C)(C)C)C(=O)N4CCC[C@@H](C(=O)O)N4)C3)ccc21, EDCI/HOBt/NMM, DCM, 11.2 mM, 25.0 °C
  ring closure, isolated yield: 51%

## CCn1c(-c2cc(N3CCN4CCC[C@@H]4C3)cnc2[C@H](C)OC)c2c3cc(ccc31)-c1cccc(c1)C[C@H](NC(=O)OC(C)(C)C)C(=O)N1CCC[C@H](N1)C(=O)OCC(C)(C)C2
From CCn1c(-c2cc(N3CCN4CCC[C@@H]4C3)cnc2[C@H](C)OC)c(CC(C)(C)CO)c2cc(-c3cccc(C[C@H](NC(=O)OC(C)(C)C)C(=O)N4CCC[C@@H](C(=O)O)N4)c3)ccc21, EDCI/HOBt/DIPEA, DCM, 16.7 mM, 25.0 °C
  ring closure, isolated yield: 42%

## CO[C@@H](C)c1ncc(N2CCN(C3CC3)CC2)cc1-c1c2c3cc(ccc3n1CC(F)(F)F)C1=CCCN(C1)C[C@H](NC(=O)OC(C)(C)C)C(=O)N1CCC[C@H](N1)C(=O)OCC(C)(C)C2
From CO[C@@H](C)c1ncc(N2CCN(C3CC3)CC2)cc1-c1c(CC(C)(C)CO)c2cc(C3=CCCN(C[C@H](NC(=O)OC(C)(C)C)C(=O)N4CCC[C@@H](C(=O)O)N4)C3)ccc2n1CC(F)(F)F, EDCI/HOBt/DIEA, DCM, 10.8 mM, 25.0 °C
  ring closure, isolated yield: 73%

## CCn1c(-c2cc(N3CCN(C4CC4)CC3)cnc2[C@H](C)OC)c2c3cc(ccc31)N1CCO[C@@H](C[C@H](NC(=O)OCc3ccccc3)C(=O)N3CCC[C@H](N3)C(=O)OCC(C)(C)C2)C1
From CCn1c(-c2cc(N3CCN(C4CC4)CC3)cnc2[C@H](C)OC)c(CC(C)(C)CO)c2cc(N3CCO[C@@H](C[C@H](NC(=O)OCc4ccccc4)C(=O)N4CCC[C@@H](C(=O)O)N4)C3)ccc21, EDCI/HOBt/DIEA, DCM, 11.3 mM, 30.0 °C
  ring closure, isolated yield: 50%

## CO[C@@H](C)c1ncc(N2CCN(C3CC3)CC2)cc1-c1c2c3cc(ccc3n1CC(F)(F)F)N1CCO[C@@H](C[C@H](NC(=O)OC(C)(C)C)C(=O)N3CCC[C@H](N3)C(=O)OCC(C)(C)C2)C1
From CO[C@@H](C)c1ncc(N2CCN(C3CC3)CC2)cc1-c1c(CC(C)(C)CO)c2cc(N3CCO[C@@H](C[C@H](NC(=O)OC(C)(C)C)C(=O)N4CCC[C@@H](C(=O)O)N4)C3)ccc2n1CC(F)(F)F, EDCI/HOBt/DIEA, DCM, 9.22 mM, 25.0 °C
  ring closure, isolated yield: 64%

## CCn1c(-c2cc(N3CCN4CCOC[C@@H]4C3)cnc2[C@H](C)OC)c2c3cc(ccc31)-c1cc(CF)cc(c1)C[C@H](NC(=O)OC(C)(C)C)C(=O)N1CCC[C@H](N1)C(=O)OCC(C)(C)C2
From CCn1c(-c2cc(N3CCN4CCOC[C@@H]4C3)cnc2[C@H](C)OC)c(CC(C)(C)CO)c2cc(-c3cc(CF)cc(C[C@H](NC(=O)OC(C)(C)C)C(=O)N4CCC[C@@H](C(=O)O)N4)c3)ccc21, EDCI/HOBt/DIEA, DCM, 11.3 mM, 0.0 °C
  ring closure, isolated yield: 69%

## CCn1c(-c2cc(N3CCN(C4CC4)CC3)cnc2[C@H](C)OC)c2c3cc(ccc31)-c1cccc(c1)C[C@H](NC(=O)OC(C)(C)C)C(=O)N1CCC[C@H](N1)C(=O)OCC(C)(C)C2
From CCn1c(-c2cc(N3CCN(C4CC4)CC3)cnc2[C@H](C)OC)c(CC(C)(C)CO)c2cc(-c3cccc(C[C@H](NC(=O)OC(C)(C)C)C(=O)N4CCC[C@@H](C(=O)O)N4)c3)ccc21, EDCI/HOBt/DIEA, DCM, 14.4 mM, 25.0 °C
  ring closure, isolated yield: 64%

## CCn1c(-c2cc(N3CCN4CCCC[C@@H]4C3)cnc2[C@H](C)OC)c2c3cc(ccc31)-c1csc(n1)C[C@H](NC(=O)OC(C)(C)C)C(=O)N1CCC[C@H](N1)C(=O)OCC(C)(C)C2
From CCn1c(-c2cc(N3CCN4CCCC[C@@H]4C3)cnc2[C@H](C)OC)c(CC(C)(C)CO)c2cc(-c3csc(C[C@H](NC(=O)OC(C)(C)C)C(=O)N4CCC[C@@H](C(=O)O)N4)n3)ccc21, EDCI/HOBt/DIPEA, DCM, 11.3 mM, 25.0 °C
  ring closure, isolated yield: 49%

## CCn1c(-c2cc(N3CCN4CCCC[C@@H]4C3)cnc2[C@H](C)OC)c2c3cc(ccc31)N1CCO[C@@H](C[C@H](NC(=O)OC(C)(C)C)C(=O)N3CCC[C@H](N3)C(=O)OCC(C)(C)C2)C1
From CCn1c(-c2cc(N3CCN4CCCC[C@@H]4C3)cnc2[C@H](C)OC)c(CC(C)(C)CO)c2cc(N3CCO[C@@H](C[C@H](NC(=O)OC(C)(C)C)C(=O)N4CCC[C@@H](C(=O)O)N4)C3)ccc21, EDCI/HOBt/DIPEA, DMF, 11.2 mM, 25.0 °C
  ring closure, isolated yield: 73%

## CO[C@@H](C)c1ncc(N2CCN3CCOC[C@@H]3C2)cc1-c1c2c3cc(ccc3n1CC(F)(F)F)N1CCO[C@@H](C[C@H](NC(=O)OC(C)(C)C)C(=O)N3CCC[C@H](N3)C(=O)OCC(C)(C)C2)C1
From CO[C@@H](C)c1ncc(N2CCN3CCOC[C@@H]3C2)cc1-c1c(CC(C)(C)CO)c2cc(N3CCO[C@@H](C[C@H](NC(=O)OC(C)(C)C)C(=O)N4CCC[C@@H](C(=O)O)N4)C3)ccc2n1CC(F)(F)F, EDCI/HOBt/NMM, DCM, 10.6 mM, 25.0 °C
  ring closure, isolated yield: 48%

## CCn1c(-c2cc(N3CCN4CCCC[C@@H]4C3)cnc2[C@H](C)OC)c2c3cc(ccc31)-c1cc(cc(C(F)F)c1)C[C@H](NC(=O)OC(C)(C)C)C(=O)N1CCC[C@H](N1)C(=O)OCC(C)(C)C2
From CCn1c(-c2cc(N3CCN4CCCC[C@@H]4C3)cnc2[C@H](C)OC)c(CC(C)(C)CO)c2cc(-c3cc(C[C@H](NC(=O)OC(C)(C)C)C(=O)N4CCC[C@@H](C(=O)O)N4)cc(C(F)F)c3)ccc21, EDCI/HOBt/DIEA, DCM, 5.27 mM, 25.0 °C
  ring closure, isolated yield: 90%

## CCn1c(-c2cc(N3CCN(C(=O)OCc4ccccc4)CC3)cnc2[C@H](C)OC)c2c3cc(ccc31)-c1csc(n1)C[C@H](NC(=O)OC(C)(C)C)C(=O)N1CCC[C@H](N1)C(=O)OCC(C)(C)C2
From CCn1c(-c2cc(N3CCN(C(=O)OCc4ccccc4)CC3)cnc2[C@H](C)OC)c(CC(C)(C)CO)c2cc(-c3csc(C[C@H](NC(=O)OC(C)(C)C)C(=O)N4CCC[C@@H](C(=O)O)N4)n3)ccc21, EDCI/HOBt/DIPEA, MeCN, 10.3 mM, 25.0 °C
  ring closure, isolated yield: 55%

## CCn1c(-c2cc(N3CCN4CCOC[C@@H]4C3)cnc2[C@H](C)OC)c2c3cc(ccc31)-c1csc(n1)C[C@H](NC(=O)OC(C)(C)C)C(=O)N1CCC[C@H](N1)C(=O)OCC(C)(C)C2
From CCn1c(-c2cc(N3CCN4CCOC[C@@H]4C3)cnc2[C@H](C)OC)c(CC(C)(C)CO)c2cc(-c3csc(C[C@H](NC(=O)OC(C)(C)C)C(=O)N4CCC[C@@H](C(=O)O)N4)n3)ccc21, EDCI/HOBt/DIPEA, DCM, 11.3 mM, 25.0 °C
  ring closure, isolated yield: 52%

## CCn1c(-c2cc(N3CCN4CCOC[C@@H]4C3)cnc2[C@H](C)OC)c2c3cc(ccc31)-c1cc(cc(C(F)F)c1)C[C@H](NC(=O)OC(C)(C)C)C(=O)N1CCC[C@H](N1)C(=O)OCC(C)(C)C2
From CCn1c(-c2cc(N3CCN4CCOC[C@@H]4C3)cnc2[C@H](C)OC)c(CC(C)(C)CO)c2cc(-c3cc(C[C@H](NC(=O)OC(C)(C)C)C(=O)N4CCC[C@@H](C(=O)O)N4)cc(C(F)F)c3)ccc21, EDCI/HOBt/DIEA, DCM, 10.7 mM, 25.0 °C
  ring closure, isolated yield: 42%

## CO[C@@H](C)c1ncc(N2CCN3CCOC[C@@H]3C2)cc1-c1c2c3cc(ccc3n1CC(F)(F)F)-c1csc(n1)C[C@H](NC(=O)OC(C)(C)C)C(=O)N1CCC[C@H](N1)C(=O)OCC(C)(C)C2
From CO[C@@H](C)c1ncc(N2CCN3CCOC[C@@H]3C2)cc1-c1c(CC(C)(C)CO)c2cc(-c3csc(C[C@H](NC(=O)OC(C)(C)C)C(=O)N4CCC[C@@H](C(=O)O)N4)n3)ccc2n1CC(F)(F)F, EDCI/HOBt/DIEA, DCM, 10.6 mM, 25.0 °C
  ring closure, isolated yield: 64%

## CCn1c(-c2cc(N3CCN4CCC[C@@H]4C3)cnc2[C@H](C)OC)c2c3cc(ccc31)-c1cc(cc(C(F)F)c1)C[C@H](NC(=O)OC(C)(C)C)C(=O)N1CCC[C@H](N1)C(=O)OCC(C)(C)C2
From CCn1c(-c2cc(N3CCN4CCC[C@@H]4C3)cnc2[C@H](C)OC)c(CC(C)(C)CO)c2cc(-c3cc(C[C@H](NC(=O)OC(C)(C)C)C(=O)N4CCC[C@@H](C(=O)O)N4)cc(C(F)F)c3)ccc21, EDCI/HOBt/DIEA, DCM, 10.1 mM, 25.0 °C
  ring closure, isolated yield: 78%
